Reference: the NIST ThermoML archive (doi:10.1016/j.jct.2005.04.009)
Numbers after ± are expanded uncertainties.

How the values were obtained:
[1] = 101.33 kPa, Liquid, Alternating current cell with electrodes
[2] = wn = mass fraction of the nth substance listed; conditions: 100 kPa, Liquid, Alternating current cell with electrodes

| SMILES | electrical conductivity ([1]; 288.15 K) [S/m] | electrical conductivity ([1]; 293.15 K) [S/m] | electrical conductivity ([1]; 298.15 K) [S/m] | electrical conductivity ([1]; 308.15 K) [S/m] | electrical conductivity ([1]; 323.15 K) [S/m] | electrical conductivity ([2]; 288.15 K, w2 = 1e-05) [S/m] | electrical conductivity ([2]; 288.15 K, w2 = 8e-05) [S/m] | electrical conductivity ([2]; 288.15 K, w2 = 0.00102) [S/m] | electrical conductivity ([2]; 288.15 K, w2 = 0.00885) [S/m] | electrical conductivity ([2]; 293.15 K, w2 = 1e-05) [S/m] | electrical conductivity ([2]; 293.15 K, w2 = 8e-05) [S/m] | electrical conductivity ([2]; 293.15 K, w2 = 0.00102) [S/m] | electrical conductivity ([2]; 293.15 K, w2 = 0.00885) [S/m] | electrical conductivity ([2]; 298.15 K, w2 = 1e-05) [S/m] | electrical conductivity ([2]; 298.15 K, w2 = 8e-05) [S/m] | electrical conductivity ([2]; 298.15 K, w2 = 0.00102) [S/m] | electrical conductivity ([2]; 298.15 K, w2 = 0.00885) [S/m] |
| --- | --- | --- | --- | --- | --- | --- | --- | --- | --- | --- | --- | --- | --- | --- | --- | --- | --- |
| CCCCn1cc[n+](C)c1.F[P-](F)(F)(F)(F)F [1-butyl-3-methylimidazolium hexafluorophosphate] | 0.079 ± 0.02 | 0.109 ± 0.02 | 0.146 ± 0.02 | 0.247 ± 0.02 | 0.477 ± 0.02 |  |  |  |  |  |  |  |  |  |  |  |  |
| CCCCCC[n+]1ccn(C)c1.O=S(=O)([N-]S(=O)(=O)C(F)(F)F)C(F)(F)F | 0.135 ± 0.02 | 0.173 ± 0.02 | 0.218 ± 0.02 | 0.327 ± 0.02 | 0.546 ± 0.02 |  |  |  |  |  |  |  |  |  |  |  |  |
| CCCC[n+]1ccn(C)c1.O=S(=O)([N-]S(=O)(=O)C(F)(F)F)C(F)(F)F + O |  |  |  |  |  | 0.265 ± 0.02 | 0.266 ± 0.02 | 0.277 ± 0.02 | 0.365 ± 0.021 | 0.331 ± 0.02 | 0.332 ± 0.02 | 0.345 ± 0.02 | 0.449 ± 0.021 | 0.406 ± 0.02 | 0.408 ± 0.02 | 0.422 ± 0.02 | 0.542 ± 0.022 |
| CCCC[n+]1ccn(C)c1.O=S(=O)([N-]S(=O)(=O)C(F)(F)F)C(F)(F)F | 0.265 ± 0.02 | 0.331 ± 0.02 | 0.406 ± 0.02 | 0.585 ± 0.02 | 0.924 ± 0.02 |  |  |  |  |  |  |  |  |  |  |  |  |
| CCn1cc[n+](C)c1.O=S(=O)([N-]S(=O)(=O)C(F)(F)F)C(F)(F)F | 0.644 ± 0.02 | 0.773 ± 0.02 | 0.912 ± 0.02 | 1.23 ± 0.02 | 1.79 ± 0.02 |  |  |  |  |  |  |  |  |  |  |  |  |
